The source of these data is ChEMBL document CHEMBL1129577, “Identification of a novel oxazolidinone (U-100480) with potent antimycobacterial activity” (1996).

In brackets after ≈: the same amount, converted by molar mass.

Common to all, as to type: functional
For experiment [1], the system named is Mycobacterium tuberculosis. The experiment in a line: Compound was evaluated for in vitro anti-mycobacterial activity against Mycobacterium tuberculosis.
The subject of experiment [2] is Mycobacterium tuberculosis. The experiment in a line: In vitro anti-mycobacterial activity against multiple sensitive strains of Mycobacterium tuberculosis at 0.125 ug/mL.
In experiment [3] the test system is Mycobacterium tuberculosis. Nature of the experiment: In vitro anti-mycobacterial activity against multiple sensitive strains of Mycobacterium tuberculosis at 0.50 ug/mL.
The test system of experiment [4] is Mycobacterium tuberculosis. The experiment in a line: In vitro anti-mycobacterial activity against multiple sensitive strains of Mycobacterium tuberculosis at 2 ug/mL.
Experiment [5] has as its system Mycobacterium xenopi. The experiment in a line: Compound was evaluated for in vitro anti-mycobacterial activity against Mycobacterium xenopi.
The subject of experiment [6] is Mycobacterium simiae. The experiment in a line: Compound was evaluated for in vitro anti-mycobacterial activity against Mycobacterium simiae.
Experiment [7] relates to Mycobacterium avium. Nature of the experiment: Compound was evaluated for in vitro anti-mycobacterial activity against Mycobacterium avium complex (MAC) ATCC 49601.
Experiment [8] concerns Mycolicibacterium fortuitum. Nature of the experiment: Compound was evaluated for in vitro anti-mycobacterial activity against Mycobacterium fortuitum.
Experiment [9] has as its system Mycobacterium malmoense. Nature of the experiment: Compound was evaluated for in vitro anti-mycobacterial activity against Mycobacterium malmoense.
Experiment [10] relates to Mycobacterium avium. Nature of the experiment: Compound was evaluated for in vitro anti-mycobacterial activity against MAC 101.
In experiment [11] the test system is Mycobacterium tuberculosis. The experiment in a line: In vitro anti-mycobacterial activity against multiple sensitive strains of Mycobacterium tuberculosis at 0.03 ug/mL.
The test system of experiment [12] is Mycobacterium avium. Nature of the experiment: Compound was evaluated for in vitro anti-mycobacterial activity against Mycobacterium avium complex by 90%.
In experiment [13] the test system is Mycobacterium tuberculosis. The experiment in a line: Compound was evaluated for in vitro anti-mycobacterial activity against Mycobacterium tuberculosis H37Rv.
Experiment [14] deals with Mycobacterium avium. The experiment in a line: Compound was evaluated for in vitro anti-mycobacterial activity against Mycobacterium avium complex by 50%.

Take `CC(=O)NC[C@H]1CN(c2ccc(N3CC[S+]([O-])CC3)c(F)c2)C(=O)O1`: the MIC in experiment [1] is below 0.125 µg/mL.
Consider `CC(=O)NC[C@H]1CN(c2ccc(N3CCS(=O)(=O)CC3)c(F)c2)C(=O)O1`, for which the No. of strains in [2] stood at 1; in [3] it was 4; in experiment [4], 1.
As to `CC[C@H]1OC(=O)[C@H](C)[C@@H](O[C@H]2C[C@@](C)(OC)[C@@H](O)[C@H](C)O2)[C@H](C)[C@@H](O[C@@H]2O[C@H](C)C[C@H](N(C)C)[C@H]2O)[C@](C)(O)C[C@@H](C)CN(C)[C@H](C)[C@@H](O)[C@]1(C)O` [AZITHROMYCIN], the MIC is 1 µg/mL (≈ 1.34 µM) in [5]; 4 µg/mL (≈ 5.34 µM) in experiment [6]; 4 µg/mL (≈ 5.34 µM) in experiment [7]; above 64 µg/mL in experiment [8]; 16 µg/mL (≈ 21.4 µM) in [9]; 4 µg/mL (≈ 5.34 µM) in experiment [10].
`NNC(=O)c1ccncc1` [ISONIAZID] yielded an MIC in experiment [1] of 0.2 µg/mL (≈ 1.46 µM).
Take `CC(=O)NC[C@H]1CN(c2ccc(N3CCSCC3)c(F)c2)C(=O)O1` [SUTEZOLID]: the No. of strains in experiment [2] turned out to be 2; in experiment [11] it was 1; in experiment [3] it was 2. In addition, the MIC in experiment [5] is 2 µg/mL (≈ 5.66 µM); in experiment [6], 2 µg/mL (≈ 5.66 µM); in experiment [7], 4 µg/mL (≈ 11.3 µM); in experiment [8], 8 µg/mL (≈ 22.6 µM); in experiment [12] it was 4 µg/mL (≈ 11.3 µM); in [13], below 0.125 µg/mL. Also, the results for the MIC in experiment [9], in experiment [14] and in [10] were 2 µg/mL (≈ 5.66 µM), 2 µg/mL (≈ 5.66 µM) and 0.5 µg/mL (≈ 1.41 µM), respectively.
